Literature values in PubChem BioAssay AID1259409 (Chemical Carcinogenesis Research Information System (CCRIS), 2018).

Tested on: rodent chemically induced tumor inhibition, incidence and multiplicity
Assay: CCRIS tumor inhibitor studies

SMILES | tumour outcome (control, treated, inhibition, significance) (Carcinogen: 7,12-DIMETHYLBENZ[A]ANTHRACENE, 57-97-6, Dose [Inhibitor]: 0, 30 MG (AS DEPO-PROVERA) ONCE 3 WK POST CARCINOGEN DOSE (STUDY DURATION: 85 D), Route [Inhibitor]: SUBCUTANEOUS, Species: RAT, Strain/Sex: SPRAGUE-DAWLEY/FEMALE, Target Tissue: Type of Lesion: MAMMARY GLAND: TUMOR, Dose [Carcinogen]: 20 MG IN 1 ML CORN OIL ONCE, Promoter: NONE USED) | tumour outcome (control, treated, inhibition, significance) (Carcinogen: 7,12-DIMETHYLBENZ[A]ANTHRACENE, 57-97-6, Dose [Inhibitor]: 0, 30 MG (AS DEPO-PROVERA) ONCE 7 D PRIOR TO CARCINOGEN DOSE (STUDY DURATION: 92 D), Route [Inhibitor]: SUBCUTANEOUS, Species: RAT, Strain/Sex: SPRAGUE-DAWLEY/FEMALE, Target Tissue: Type of Lesion: MAMMARY GLAND: TUMOR, Dose [Carcinogen]: 20 MG IN 1 ML CORN OIL ONCE, Promoter: NONE USED) | tumour outcome (control, treated, inhibition, significance) (Carcinogen: 7,12-DIMETHYLBENZ[A]ANTHRACENE, 57-97-6, Dose [Inhibitor]: 0, 30 MG (MICROSPHERES) ONCE 7 D PRIOR TO CARCINOGEN DOSE (STUDY DURATION: 92 D), Route [Inhibitor]: SUBCUTANEOUS, Species: RAT, Strain/Sex: SPRAGUE-DAWLEY/FEMALE, Target Tissue: Type of Lesion: MAMMARY GLAND: TUMOR, Dose [Carcinogen]: 20 MG IN 1 ML CORN OIL ONCE, Promoter: NONE USED) | tumour outcome (control, treated, inhibition, significance) (Carcinogen: 7,12-DIMETHYLBENZ[A]ANTHRACENE, 57-97-6, Dose [Inhibitor]: 0, 100 MG (AS DEPO-PROVERA) ONCE 3 WK POST CARCINOGEN DOSE (STUDY DURATION: 85 WK), Route [Inhibitor]: SUBCUTANEOUS, Species: RAT, Strain/Sex: SPRAGUE-DAWLEY/FEMALE, Target Tissue: Type of Lesion: MAMMARY GLAND: TUMOR, Dose [Carcinogen]: 20 MG IN 1 ML CORN OIL ONCE, Promoter: NONE USED) | tumour outcome (control, treated, inhibition, significance) (Carcinogen: 7,12-DIMETHYLBENZ[A]ANTHRACENE, 57-97-6, Dose [Inhibitor]: 0, 100 MG (AS DEPO-PROVERA) ONCE 7 D PRIOR TO CARCINOGEN DOSE (STUDY DURATION: 92 D), Route [Inhibitor]: SUBCUTANEOUS, Species: RAT, Strain/Sex: SPRAGUE-DAWLEY/FEMALE, Target Tissue: Type of Lesion: MAMMARY GLAND: TUMOR, Dose [Carcinogen]: 20 MG IN 1 ML CORN OIL ONCE, Promoter: NONE USED) | tumour outcome (control, treated, inhibition, significance) (Carcinogen: 7,12-DIMETHYLBENZ[A]ANTHRACENE, 57-97-6, Dose [Inhibitor]: 0, 100 MG (MICROSPHERES) ONCE 7 D PRIOR TO CARCINOGEN DOSE (STUDY DURATION: 92 D), Route [Inhibitor]: SUBCUTANEOUS, Species: RAT, Strain/Sex: SPRAGUE-DAWLEY/FEMALE, Target Tissue: Type of Lesion: MAMMARY GLAND: TUMOR, Dose [Carcinogen]: 20 MG IN 1 ML CORN OIL ONCE, Promoter: NONE USED) | tumour outcome (control, treated, inhibition, significance) (Carcinogen: METHYLNITROSOUREA, 684-93-5, Dose [Inhibitor]: 0, 40 MG DEPOT EVERY 2 MO (STUDY DURATION: 345 D), Route [Inhibitor]: SUBCUTANEOUS, Species: MOUSE, Strain/Sex: BALB/FEMALE, Target Tissue: Type of Lesion: HEMATOPOIETIC SYSTEM: LYMPHOMA, Dose [Carcinogen]: 50 MG/KG BW ONCE 15 D POST INHIBITOR REMOVAL, Promoter: NONE) | tumour outcome (control, treated, inhibition, significance) (Carcinogen: METHYLNITROSOUREA, 684-93-5, Dose [Inhibitor]: 0, 40 MG DEPOT EVERY 2 MO (STUDY DURATION: 345 D), Route [Inhibitor]: SUBCUTANEOUS, Species: MOUSE, Strain/Sex: BALB/FEMALE, Target Tissue: Type of Lesion: LUNG: TUMOR, Dose [Carcinogen]: 50 MG/KG BW ONCE 15 D POST INHIBITOR REMOVAL, Promoter: NONE) | tumour outcome (control, treated, inhibition, significance) (Carcinogen: METHYLNITROSOUREA, 684-93-5, Dose [Inhibitor]: 0, 40 MG DEPOT EVERY 3 MO (STUDY DURATION: 277 D), Route [Inhibitor]: SUBCUTANEOUS, Species: MOUSE, Strain/Sex: BALB/FEMALE, Target Tissue: Type of Lesion: HEMATOPOIETIC SYSTEM: LYMPHOMA, Dose [Carcinogen]: 50 MG/KG BW ONCE 1 WK POST INHIBITOR FIRST DOSE, Promoter: NONE) | tumour outcome (control, treated, inhibition, significance) (Carcinogen: METHYLNITROSOUREA, 684-93-5, Dose [Inhibitor]: 0, 40 MG DEPOT EVERY 3 MO (STUDY DURATION: 277 D), Route [Inhibitor]: SUBCUTANEOUS, Species: MOUSE, Strain/Sex: BALB/FEMALE, Target Tissue: Type of Lesion: LUNG: TUMOR, Dose [Carcinogen]: 50 MG/KG BW ONCE 1 WK POST INHIBITOR FIRST DOSE, Promoter: NONE) | tumour outcome (control, treated, inhibition, significance) (Carcinogen: METHYLNITROSOUREA, 684-93-5, Dose [Inhibitor]: 0, 40 MG DEPOT EVERY 3 MO BEGINNING 1 WK POST CARCINOGEN (STUDY DURATION: 9 MO), Route [Inhibitor]: SUBCUTANEOUS, Species: MOUSE, Strain/Sex: BALB/FEMALE, Target Tissue: Type of Lesion: HEMATOPOIETIC SYSTEM: LYMPHOMA, Dose [Carcinogen]: 50 MG/KG BW ONCE, Promoter: NONE) | tumour outcome (control, treated, inhibition, significance) (Carcinogen: METHYLNITROSOUREA, 684-93-5, Dose [Inhibitor]: 0, 40 MG DEPOT EVERY 3 MO BEGINNING 1 WK POST CARCINOGEN (STUDY DURATION: 9 MO), Route [Inhibitor]: SUBCUTANEOUS, Species: MOUSE, Strain/Sex: BALB/FEMALE, Target Tissue: Type of Lesion: LUNG: TUMOR, Dose [Carcinogen]: 50 MG/KG BW ONCE, Promoter: NONE) | tumour outcome (control, treated, inhibition, significance) (Carcinogen: METHYLNITROSOUREA, 684-93-5, Dose [Inhibitor]: 0, 40 MG DEPOT FOR 2 MO BEGINNING 1 WK POST CARCINOGEN (STUDY DURATION: 9 MO), Route [Inhibitor]: SUBCUTANEOUS, Species: MOUSE, Strain/Sex: BALB/FEMALE, Target Tissue: Type of Lesion: HEMATOPOIETIC SYSTEM: LYMPHOMA, Dose [Carcinogen]: 50 MG/KG BW ONCE, Promoter: NONE) | tumour outcome (control, treated, inhibition, significance) (Carcinogen: METHYLNITROSOUREA, 684-93-5, Dose [Inhibitor]: 0, 40 MG DEPOT FOR 2 MO BEGINNING 1 WK POST CARCINOGEN (STUDY DURATION: 9 MO), Route [Inhibitor]: SUBCUTANEOUS, Species: MOUSE, Strain/Sex: BALB/FEMALE, Target Tissue: Type of Lesion: LUNG: TUMOR, Dose [Carcinogen]: 50 MG/KG BW ONCE, Promoter: NONE) | tumour outcome (control, treated, inhibition, significance) (Carcinogen: BENZO[A]PYRENE, 50-32-8, Dose [Inhibitor]: 25 MG IN 0.1 ML ACETONE 3/WK ADMINISTERED SIMULTANEOUSLY WITH CARCINOGEN FOR DURATION OF STUDY (STUDY DURATION: 440 D), Route [Inhibitor]: DERMAL, Species: MOUSE, Strain/Sex: ICR/FEMALE, Target Tissue: Type of Lesion: SKIN: PAPILLOMA, Dose [Carcinogen]: 5 UG IN 0.1 ML ACETONE 3/WK FOR DURATION OF STUDY, Promoter: NONE USED) | tumour outcome (control, treated, inhibition, significance) (Carcinogen: BENZO[A]PYRENE, 50-32-8, Dose [Inhibitor]: 25 MG IN 0.1 ML ACETONE 3/WK ADMINISTERED SIMULTANEOUSLY WITH CARCINOGEN FOR DURATION OF STUDY (STUDY DURATION: 440 D), Route [Inhibitor]: DERMAL, Species: MOUSE, Strain/Sex: ICR/FEMALE, Target Tissue: Type of Lesion: SKIN: SQUAMOUS CARCINOMA, Dose [Carcinogen]: 5 UG IN 0.1 ML ACETONE 3/WK FOR DURATION OF STUDY, Promoter: NONE USED)
CC(=O)O[C@]1(C(C)=O)CC[C@H]2[C@@H]3C[C@H](C)C4=CC(=O)CC[C@]4(C)[C@H]3CC[C@@]21C | 63%, 49%, 22%, not calculated | 63%, 28%, 56%, not calculated | 63%, 7%, 89%, not calculated | 63%, 29%, 54%, not calculated | 63%, 23%, 63%, not calculated | 63%, 6%, 90%, not calculated | 18/28 (65%), 5/35 (17%), 74%, p<0.05 | 24/28 (86%), 28/31 (89%), -3%, not significant | 18/28 (65%), 7/35 (19%), 71%, p<0.05 | 24/28 (86%), 31/35 (88%), -2%, not significant | 18/28 (65%), 7/50 (15%), 77%, p<0.05 | 24/28 (86%), 44/50 (89%), -3%, not significant | 18/28 (65%), 7/27 (26%), 60%, p<0.05 | 24/28 (86%), 23/27 (85%), 0%, not significant |  | 
CCCCCCCCCCCCCCCC |  |  |  |  |  |  |  |  |  |  |  |  |  |  | 16/50 (32%), 5/50 (10%), 69%, not calculated | 12/50 (24%), 2/50 (4%), 83%, not calculated
